Values quoted from earlier work, collected in patent US20170333565A1, “TLR9 TARGETED CYTOTOXIC AGENTS” (H. LEE MOFFITT CANCER CENTER AND RESEARCH INSTITUTE, INC., priority 2014, published 2017).

Test system: myelodysplastic syndromes (MDS)
Conditions: cited from earlier work

Nc1cccc2c1CN(C1CCC(=O)NC1=O)C2=O (centres unmarked) [LEN, lenalidomide]
clinical response (majority of patients with a chromosome 5q deletion (del5q)): sustained red blood cell transfusion independence
median duration of response (patients with del5q MDS): 2.5 years
